Source: PubChem BioAssay (NCI)
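Test compounds were applied to cells in 96-well plates for 48 hours at 5 doses. TGI: concentration producing complete growth inhibition.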

Legend:
Test in all cases: NCI-60 cell line screen, 48 h
SNB-75 CNS = test system: SNB-75 CNS
OVCAR-3 ovarian = test system: OVCAR-3 ovarian
MDA-MB-231 breast = test system: MDA-MB-231 breast
DU-145 prostate = test system: DU-145 prostate
SK-MEL-5 melanoma = test system: SK-MEL-5 melanoma
CCRF-CEM leukemia = test system: CCRF-CEM leukemia
NCI/ADR-RES ovarian = test system: NCI/ADR-RES ovarian
MDA-MB-435 = test system: MDA-MB-435
NCI-H226 lung = test system: NCI-H226 lung
HOP-92 NSCLC = test system: HOP-92 NSCLC
HT29 colon = test system: HT29 colon
EKVX NSCLC = test system: EKVX NSCLC
SF-539 CNS = test system: SF-539 CNS
SNB-19 CNS = test system: SNB-19 CNS
HCT-15 colon = test system: HCT-15 colon
OVCAR-8 ovarian = test system: OVCAR-8 ovarian
A549 NSCLC = test system: A549 NSCLC
MALME-3M melanoma = test system: MALME-3M melanoma
MDA-N = test system: MDA-N
SK-MEL-28 melanoma = test system: SK-MEL-28 melanoma
SK-MEL-2 melanoma = test system: SK-MEL-2 melanoma
OVCAR-5 ovarian = test system: OVCAR-5 ovarian
UO-31 renal = test system: UO-31 renal
786-0 renal = test system: 786-0 renal
CAKI-1 renal = test system: CAKI-1 renal
MOLT-4 leukemia = test system: MOLT-4 leukemia
MCF7 breast = test system: MCF7 breast
ACHN renal = test system: ACHN renal
RXF 393 renal = test system: RXF 393 renal
T-47D breast = test system: T-47D breast
HOP-62 NSCLC = test system: HOP-62 NSCLC
HCC-2998 colon = test system: HCC-2998 colon
UACC-257 melanoma = test system: UACC-257 melanoma
U251 CNS = test system: U251 CNS
OVCAR-4 ovarian = test system: OVCAR-4 ovarian
TK-10 renal = test system: TK-10 renal
KM12 colon = test system: KM12 colon
LOX IMVI melanoma = test system: LOX IMVI melanoma
K-562 leukemia = test system: K-562 leukemia
IGROV1 ovarian = test system: IGROV1 ovarian
PC-3 prostate = test system: PC-3 prostate
SF-295 CNS = test system: SF-295 CNS
NCI-H23 lung = test system: NCI-H23 lung
M14 melanoma = test system: M14 melanoma
RPMI-8226 leukemia = test system: RPMI-8226 leukemia
HCT-116 colon = test system: HCT-116 colon
UACC-62 melanoma = test system: UACC-62 melanoma
SK-OV-3 ovarian = test system: SK-OV-3 ovarian
COLO 205 colon = test system: COLO 205 colon
NCI-H522 lung = test system: NCI-H522 lung
SN12C renal = test system: SN12C renal
SF-268 CNS = test system: SF-268 CNS
SW-620 colon = test system: SW-620 colon
SR leukemia = test system: SR leukemia
NCI-H460 lung = test system: NCI-H460 lung
BT-549 breast = test system: BT-549 breast
HL-60(TB) leukemia = test system: HL-60(TB) leukemia
A498 renal = test system: A498 renal

Measured: TGI

C=C1[C@@H](OC(C)=O)[C@H]2[C@@H](OC(C)=O)[C@@](C)(OC(C)=O)C[C@]2(OC(C)=O)C(=O)[C@@H](C)/C=C/C(C)(C)C(=O)C[C@H]1OC(C)=O
not listed: SF-268 CNS | SW-620 colon | SR leukemia | NCI-H460 lung | BT-549 breast | HL-60(TB) leukemia | A498 renal
> 100 µM: all other assays above

CC(=O)/C=C/CCC(=O)/C=C/C(=O)OC(CCC(=O)/C=C/C(=O)O)CC(C)=O (stereo not given)
not listed: SNB-75 CNS | SK-MEL-2 melanoma | UO-31 renal | CAKI-1 renal | LOX IMVI melanoma | SK-OV-3 ovarian | A498 renal
> 100 µM: all other assays above

CCOP(=O)(/C=C/n1ccc(=O)[nH]c1=O)OCC
not listed: HOP-92 NSCLC | MALME-3M melanoma | UO-31 renal | HCC-2998 colon | SR leukemia
> 100 µM: all other assays above
